Patent US11360080B2, “AhR-ROR-γt complex as a biomarker and therapeutic target for autoimmune disease and IL-17A-associated disease” (NATIONAL HEALTH RESEARCH INSTITUTES, priority 2018, dated 2022)
Where a name gives a salt, the structure may show the parent alone.

Experiments:
TC-1 lung cancer cells = assay: TC-1 lung cancer xenograft model in wild-type mice; type: in vivo, mouse; details: i.v. C1 10 uM, C2 17 uM every 3 days for 15 days
Method: (A) Murine TC-1 lung cancer cells were subcutaneously inoculated into the right flank of wild-type mice for establishing a TC-1 xenograft model. TC-1 cells inoculated mice were intravenously injected with PBS, C1 (verteporfin) (10 uM), or C2 (alexidine dihydrochloride) (17 uM) every 3 days for 15 days. (B) Photographs of excised TC-1 lung cancers after receiving PBS, C1 (verteporfin) (10 uM), or C2 (17 uM) treatment. (C) The growth (mean tumor volume) of tumor was measured for 15 days. The TC-1 tumor size progression as a function of time post-administration with C1 or C2. N.D., not detectable. C1 denotes verteporfin; C2 denotes alexidine dihydrochloride.

KHS (MAP4K5) = molecular target: T1, KHS (MAP4K5) (Homo sapiens, UniProt Q9Y4K4); assay: In vitro kinase assay, recombinant kinase domain, MBP as substrate; type: biochemical
T1 construct: Recombinant proteins of kinase domains of various MAP4Ks were used
Method: (§1) GLK kinase activity was determined by measuring the rate of ADP production in the in vitro kinase reaction using ADP-GLO™ Kinase Assay kit. For the kinase reaction, recombinant proteins of the GLK kinase-domain (1 μg) were incubated with recombinant proteins of kinase-dead PKCθ (K409W; 0.15 μg) plus ATP (0.1 mM) or myelin basic protein (MBP) plus ATP (0.1 mM) in kinase buffer (40 mM Tris-HCl, pH7.5.20 mM MgCl2, 0.1 mg/ml BSA, 10 mM DTT and 0.1 mM Na3VO4) for 30 min at room temperature. We studied whether GLK inhibitors also suppress cancer cell migration. […] Moreover, both C1 (verteporfin) and C2 (alexidine dihydrochloride) treatments suppressed tumor growth in the xenograft mouse model using TC-1 lung cancer cells (FIG. 15). To study whether GLK deficiency results in a reduction of lung cancer metastasis, we used a metastatic Lewis lung carcinoma (LLC) mouse model by tail vein injection of luciferase-expressing LLC (LLC/luc) cells. We identified two GLK inhibitors (verteporfin and alexidine dihydrochloride)) using cell-based assays and in vitro kinase assays. […] The dimerization of Flag-tagged GLK protein and GFP-GLK fusion protein was indeed blocked by the C1 (verteporfin) treatment (FIG. 16C). We treated the LLC/luc cells-containing mice with the GLK inhibitor C1 (verteporfin) or C2 (alexidine dihydrochloride) by intravenous injection every 3 days for 30 days (FIG. 16D). The luciferase activity of LLC/luc cells in the mice was detected by In Vivo Imaging System. The excised lungs were weighed and subjected to H&E staining. The luciferase activity of LLC/luc cells in the lung of injected mice was reduced by the treatment of C1 (verteporfin) or C2 (alexidine dihydrochloride) (FIGS. 16E-F). […] Moreover, the interaction between GLK and IQGAP1 in the lung tissues were inhibited by the treatment of C1 (verteporfin) or C2 (alexidine dihydrochloride) (FIG. 16H, upper panel), and IQGAP1 phosphorylation was in the lung tissues were inhibited (FIG. 16H, lower panel). […] Inhibition of kinase activity of GLK (MAP4K3) or other MAP4Ks was determined by in vitro kinase assays using myelin basic protein (MBP) as a substrate. Recombinant proteins of kinase domains of various MAP4Ks were used. C1, verteporfin: C2, alexidine dihydrochloride.

HGK (MAP4K4) = molecular target: T2, HGK (MAP4K4) (Homo sapiens, UniProt O95819); assay: as above; type: biochemical
T2 construct: Recombinant proteins of kinase domains of various MAP4Ks were used
Method: as §1

HPK1 (MAP4K1) = molecular target: T3, HPK1 (MAP4K1) (Homo sapiens, UniProt Q92918); assay: as above; type: biochemical
T3 construct: Recombinant proteins of kinase domains of various MAP4Ks were used
Method: as §1

GLK (MAP4K3) = molecular target: T4, GLK (MAP4K3) (Homo sapiens, UniProt Q8IVH8); assay: In vitro kinase assay, recombinant kinase domain, myelin basic protein (MBP) as substrate; type: biochemical
T4 construct: Recombinant proteins of kinase domains of various MAP4Ks were used
Method: GLK kinase activity was determined by measuring the rate of ADP production in the in vitro kinase reaction using ADP-GLO™ Kinase Assay kit. For the kinase reaction, recombinant proteins of the GLK kinase-domain (1 μg) were incubated with recombinant proteins of kinase-dead PKCθ (K409W; 0.15 μg) plus ATP (0.1 mM) or myelin basic protein (MBP) plus ATP (0.1 mM) in kinase buffer (40 mM Tris-HCl, pH7.5.20 mM MgCl2, 0.1 mg/ml BSA, 10 mM DTT and 0.1 mM Na3VO4) for 30 min at room temperature. We studied whether GLK inhibitors also suppress cancer cell migration. […] Moreover, both C1 (verteporfin) and C2 (alexidine dihydrochloride) treatments suppressed tumor growth in the xenograft mouse model using TC-1 lung cancer cells (FIG. 15). To study whether GLK deficiency results in a reduction of lung cancer metastasis, we used a metastatic Lewis lung carcinoma (LLC) mouse model by tail vein injection of luciferase-expressing LLC (LLC/luc) cells. We identified two GLK inhibitors (verteporfin and alexidine dihydrochloride)) using cell-based assays and in vitro kinase assays. […] The luciferase activity of LLC/luc cells in the mice was detected by In Vivo Imaging System. […] Inhibition of kinase activity of GLK (MAP4K3) or other MAP4Ks was determined by in vitro kinase assays using myelin basic protein (MBP) as a substrate. […]

[1] = test system: human peripheral blood T cells; assay: ELISA of IL-17A in supernatants of human T cells stimulated with anti-CD3/CD28; type: cell-based; details: 1 μM or 5 μM for 3 days
Method: Means±SD are shown, (b) ELISA of IL-17A in supernatants of human T cells. T cells were stimulated with anti-CD3/CD28 and treated with C1 (verteporfin) (1 μM or 5 μM) or C2 (1 μM or 5 μM) for 3 days. HC, healthy control; SLE, systemic lupus erythematosus; RA, rheumatoid arthritis; AS, ankylosing spondylitis; PsA, psoriatic arthritis; PSS, primary Sjögren's syndrome. Means±SD are shown. C1 denotes verteporfin; C2 denotes alexidine dihydrochloride.
We further studied whether IL-17A production is abolished by the inhibitors of GLK-induced AhR-RORγt complex in human and murine T cells. We first tested the inhibitor experiment using murine T cells stimulated with TCR signaling (anti-CD3 plus anti-CD28 antibodies). […] Next, we studied the blocking effect of IL-17 production by the treatment of C1 (verteporfin) or C2 (alexidine dihydrochloride) using human peripheral blood T cells. […] Taken together, GLK inhibitors (verteporfin and alexidine dihydrochloride) inhibit GLK-induced AhR-RORγt complex and IL-17A production in human autoimmune patient T cells, as well as the disease severity of autoimmune animal models. Thus, GLK, GLK signaling, or GLK-induced AhR-RORγt complex can be a promising therapeutic target for autoimmune diseases.

EAE in wild-type mice = assay: Experimental autoimmune encephalomyelitis (EAE) induction in wild-type mice; type: in vivo, mouse; details: C1 0.556 nmole/g, C2 0.085 nmole/g; for serum IL-17A levels in EAE: day 16
Description: (A to C) Effect of the GLK inhibitor C1 (verteporfin) administration (0.556 nmole/g every 3 days for 30 days) on serum IL-17A and autoantibodies in Lck-GLK Tg mice. (B) ELISA of indicated serum cytokines in Lck-GLK Tg mice treated with C1 (verteporfin) or PBS. (C) ELISA of serum autoantibodies in Lck-GLK Tg mice treated with C1 (verteporfin) or PBS. Means±SEM are shown. (D) Experimental autoimmune encephalomyelitis (EAE) induction in wild-type mice treated with PBS, or the GLK inhibitor C1 (verteporfin) and C2. Clinical scores are presented on a scale of 1 to 5 (left panel). ELISA of IL-17A in the sera from MOG-immunized mice at day 16 (right panel). (E) Collagen-induced arthritis (CIA) induction in wild-type mice treated with the GLK inhibitor C1 (verteporfin) or PBS. Clinical scores are presented on a scale of 1 to 16 (left panel). ELISA of IL-17A in the sera from collagen-immunized mice at day 28. Means±SEM are shown. *, P value<0.05; **, P value<0.01; ***, P value<0.001 (two-tailed Student's […]). C1 denotes verteporfin; C2 denotes alexidine dihydrochloride.
Moreover, overproduction of autoantibodies in Lck-GLK Tg mice were also abolished by C1 (verteporfin) treatment (FIG. 10C). […] To further verify that the GLK inhibitors also works in IL-17A-mediated animal models, we challenged wild-type mice with C1 (verteporfin) or C2 (alexidine dihydrochloride) during EAE and CIA induction.

T1 sequence (Q9Y4K4 20-277 limits assumed, species assumed): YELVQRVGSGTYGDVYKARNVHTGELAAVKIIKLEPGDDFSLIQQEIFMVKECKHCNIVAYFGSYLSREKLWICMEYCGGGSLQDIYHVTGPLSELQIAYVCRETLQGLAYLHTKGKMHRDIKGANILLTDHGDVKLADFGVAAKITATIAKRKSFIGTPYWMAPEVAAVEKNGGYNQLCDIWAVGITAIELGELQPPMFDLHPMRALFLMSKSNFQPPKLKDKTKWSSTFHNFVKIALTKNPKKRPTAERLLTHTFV
T3 sequence (Q92918 17-274 limits assumed, species assumed): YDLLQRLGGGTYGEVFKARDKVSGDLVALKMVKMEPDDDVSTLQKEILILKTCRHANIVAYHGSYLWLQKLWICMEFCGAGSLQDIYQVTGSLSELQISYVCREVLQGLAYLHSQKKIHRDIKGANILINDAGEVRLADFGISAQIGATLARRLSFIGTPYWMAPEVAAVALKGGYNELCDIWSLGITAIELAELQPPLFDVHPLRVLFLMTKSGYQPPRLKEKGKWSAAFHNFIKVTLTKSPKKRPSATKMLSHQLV
T2 sequence (O95819 25-289 limits assumed, species assumed): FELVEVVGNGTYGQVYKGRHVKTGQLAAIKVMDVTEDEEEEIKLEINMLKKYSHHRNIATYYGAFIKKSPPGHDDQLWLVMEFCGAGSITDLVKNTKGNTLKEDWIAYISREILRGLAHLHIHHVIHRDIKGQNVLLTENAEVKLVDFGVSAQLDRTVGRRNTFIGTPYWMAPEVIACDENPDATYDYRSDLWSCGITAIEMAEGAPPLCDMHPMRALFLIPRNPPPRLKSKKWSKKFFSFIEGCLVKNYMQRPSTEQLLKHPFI
T4 sequence (Q8IVH8 16-273 limits assumed): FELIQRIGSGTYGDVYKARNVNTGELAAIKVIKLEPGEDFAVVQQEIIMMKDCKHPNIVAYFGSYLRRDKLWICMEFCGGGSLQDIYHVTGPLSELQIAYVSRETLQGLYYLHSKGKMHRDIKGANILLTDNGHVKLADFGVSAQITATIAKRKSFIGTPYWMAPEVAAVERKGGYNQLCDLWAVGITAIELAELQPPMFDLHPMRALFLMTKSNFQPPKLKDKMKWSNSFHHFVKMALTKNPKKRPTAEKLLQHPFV

IC50 (KHS (MAP4K5))	IC50 (HGK (MAP4K4))	IC50 (HPK1 (MAP4K1))	IC50 (GLK (MAP4K3))	Structure (SMILES)	tumor growth (mean tumor volume) (TC-1 lung cancer cells)	IL-17A production, anti-CD3/CD28-stimulated T cells of autoimmune disease patients [1]	TCR-induced IL-17A production, T cells from healthy controls [1]	disease severity (clinical score) in EAE (EAE in wild-type mice)	serum IL-17A levels in EAE (EAE in wild-type mice)
43.9 nM	4.92 nM	7.91 nM	1.15 nM	C=Cc1c(C)c2cc3nc(cc4[nH]c(cc5nc(cc1[nH]2)C(C)=C5CCC(=O)O)c(CCC(=O)OC)c4C)[C@@]1(C)C3=CC=C(C(=O)OC)[C@H]1C(=O)OC [C1, verteporfin]	suppressed	drastically inhibited	significantly reduced	significantly suppressed	significantly suppressed
18.3 nM	21.8 nM	6.14 nM	10.1 nM	CCCCC(CC)CNC(=N)NC(=N)NCCCCCCNC(=N)NC(=N)NCC(CC)CCCC (centres unmarked) [C2, alexidine dihydrochloride]	suppressed	drastically inhibited	–	significantly suppressed	significantly suppressed
